Results reported in US7759337B2, “Phthalazine compounds and methods of use” (Amgen Inc., priority 2005, dated 2010).
pIC50: −log10 of the molar value.

system: production of TNF by monocytes activated with bacterial lipopolysaccharide (LPS); experiment: Lipopolysaccharide-activated monocyte TNF production assay; type: cell-based; conditions: Homo sapiens; whole blood monocyte assay (LPS induced TNF release)
Experimental: Test compounds were evaluated in vitro for the ability to inhibit the production of TNF by monocytes activated with bacterial lipopolysaccharide (LPS). Fresh residual source leukocytes (a byproduct of plateletpheresis) were obtained from a local blood bank, and peripheral blood mononuclear cells (PBMCs) were isolated by density gradient centrifugation on Ficol-Paque Plus (Pharmacia). PBMCs were suspended at 2×10^6/mL in DMEM supplemented to contain 2% FCS, 10 mM, 0.3 mg/mL […], 100 U/mL penicillin G and […] streptomycin sulfate (complete media). Cells were plated into Falcon flat bottom, 96 well culture plates (200 μL/well) and cultured overnight at 37° C. and 6% CO2. Non-adherent cells were removed by washing with 200 μl/well of fresh medium.
Test compounds were dissolved in […]. Compound stock solutions were prepared to an initial concentration of […]. Stocks were diluted initially to 20-200 μM in complete media. Nine two-fold serial dilutions of each compound were then prepared in complete medium.
One hundred microliters of each test compound dilution were added to microtiter wells containing adherent monocytes and 100 μL complete medium. Monocytes were cultured with test compounds for 60 min at which time 25 μL of complete medium containing 30 ng/mL lipopolysaccharide from E. coli K532 were added to each well. Cells were cultured an additional 4 hrs. Culture supernatants were then removed and TNF presence in the supernatants was quantified using an ELISA.
Flat bottom, 96 well Corning High Binding ELISA plates were coated overnight (4° C.) with 150 μL/well of 3 μg/mL murine anti-human TNF-α MAb (R&D Systems #MAB210). Wells were then blocked for 1 h at room temperature with 200 μL/well of CaCl2-free ELISA buffer supplemented to contain 20 mg/mL BSA (standard ELISA buffer: […], 150 mM NaCl, 2 mM CaCl2, 0.15 mM thimerosal, pH 7.4). Plates were washed and replenished with 100 μL of test supernatants (diluted 1:3) or standards. Standards consisted of eleven 1.5-fold serial dilutions from a stock of I ng/mL recombinant human TNF (R&D Systems). Plates were incubated at room temperature for 1 h on orbital shaker (300 rpm), washed and replenished with 100 μL/well of 0.5 μg/mL goat anti-human TNF-α (R&D systems #AB-210-NA) biotinylated at a 4:1 ratio. Plates were incubated for 40 min, washed and replenished with 100 μL/well of alkaline phosphatase-conjugated streptavidin (Jackson ImmunoResearch #016-050-084) at 0.02 μg/mL. Plates were incubated 30 min, washed and replenished with 200 μL/well of 1 mg/mL of p-nitrophenyl phosphate. After 30 min, plates were read at 405 nm on a Vmax plate reader.
Standard curve data were fit to a second order polynomial and unknown TNF-α concentrations determined from their OD by solving this equation for concentration. TNF concentrations were then plotted vs. test compound concentration using a second order polynomial. This equation was then used to calculate the concentration of test compounds causing a 50% reduction in TNF production.

SMILES	pIC50
CNC(=O)c1ccc(C)c(-c2ccc3c(NC(C)C)nncc3c2)c1 [Example 10, 3-(1-(isopropylamino)phthalazin-6-yl)-N,4-dimethylbenzamide]	≥ 5.30
Cc1ccc(C(=O)NC2CC2)cc1-c1ccc2c(-c3ccc(C(F)(F)F)cc3C(F)(F)F)nncc2c1 [Example 11, 3-(1-(2,4-bis(trifluoromethyl)phenyl)phthalazin-6-yl)-N-cyclopropyl-4-methylbenzamide]	≥ 5.30
Fc1ccc(Oc2ccc3c(-c4ccccc4Cl)nncc3c2)cc1 [Example 12, 1-(2-chlorophenyl)-6-(4-fluorophenoxy)phthalazine]	≥ 5.30
Cc1ccc(C(=O)NC2CC2)cc1-c1ccc2c(C(C)C)nncc2c1 [Example 13, N-Cyclopropyl-3-(1-isopropylphthalazin-6-yl)-4-methylbenzamide]	≥ 5.30
Cc1ccc2c(NC3CC3)noc2c1-c1ccc2c(N3CCOC[C@@H]3C)nncc2c1 [Example 14, N-cyclopropyl-6-methyl-7-(1-((S)-3-methylmorpholino)phthalazin-6-yl)benzo[d]isoxazol-3-amine]	≥ 5.30
CNc1noc2c(-c3ccc4c(N5CCOC[C@@H]5C)nncc4c3)c(Cl)ccc12 [Example 15, 6-chloro-N-methyl-7-(1-((S)-3-methylmorpholino)phthalazin-6-yl)benzo[d]isoxazol-3-amine]	≥ 5.30
C[C@H]1COCCN1c1nncc2cc(-c3ccc(C(F)(F)F)c4c(NC(C)(C)C)noc34)ccc12 [Example 16, N-tert-butyl-7-(1-((S)-3-methylmorpholino)phthalazin-6-yl)-4-(trifluoromethyl)benzo[d]isoxazol-3-amine]	≥ 5.30
Cc1ccccc1-c1ccc2c(N3CCOCC3c3ccc(Cl)cc3)nncc2c1 (stereo not shown) [Example 17, 1-(3-(4-chlorophenyl)morpholino)-6-o-tolylphthalazine]	≥ 5.30
Cc1ccc(-c2nncc3cc(-c4cc(C(=O)NC5CC5)ccc4C)ccc23)c(C)c1 [Example 18, N-cyclopropyl-3-[1-(2,4-dimethylphenyl)phthalazin-6-yl]-4-methylbenzamide]	≥ 5.30
Cc1ccc(C(=O)NC2CC2)cc1-c1ccc2c(N3CC4CC3CN4)nncc2c1 (stereo not shown) [Example 20, 3-(1-(2,5-diaza-bicyclo[2.2.1]heptan-2-yl)phthalazin-6-yl)-N-cyclopropyl-4-methylbenzamide]	≥ 5.30
Cc1ccc(C(=O)NC2CC2)cc1-c1ccc2c(N3CCN(C)CC3)nncc2c1 [Example 23, N-cyclopropyl-4-methyl-3-(1-(4-methylpiperazin-1-yl)phthalazin-6-yl)benzamide]	≥ 5.30
Cc1ccc(C(=O)NC2CC2)cc1-c1ccc2c(N3CC4CC3CO4)nncc2c1 (stereo not shown) [Example 27, 3-(1-(5-oxa-2-aza-bicyclo[2.2.1]heptan-2-yl)phthalazin-6-yl)-N-cyclopropyl-4-methylbenzamide]	≥ 5.30
Cc1ccc(C(=O)NC2CC2)cc1-c1ccc2c(N3CCCC(C(N)=O)C3)nncc2c1 (stereo not shown) [Example 29, 1-(6-(5-(cyclopropylcarbamoyl)-2-methylphenyl)phthalazin-1-yl)piperidine-3-carboxamide]	≥ 5.30
O=C(NC1CC1)c1ccc(Cl)c(-c2ccc3c(N4CCOCC4)nncc3c2)c1 [Example 38, 4-chloro-N-cyclopropyl-3-(1-morpholinophthalazin-6-yl)benzamide]	≥ 5.30
CCNC(=O)c1ccc(C)c(-c2ccc3c(N4CCOCC4)nncc3c2)c1 [Example 41, N-ethyl-4-methyl-3-(1-morpholinophthalazin-6-yl)benzamide]	≥ 5.30
COc1ccc(C(F)(F)F)cc1NC(=O)c1ccc(C)c(-c2ccc3c(N4CCOCC4)nncc3c2)c1 [Example 43, N-(2-methoxy-5-(trifluoromethyl)phenyl)-4-methyl-3-(1-morpholinophthalazin-6-yl)benzamide]	≥ 5.30
Cc1cc(C(=O)NC2CC2)sc1-c1ccc2c(N3CCOCC3)nncc2c1 [Example 46, N-cyclopropyl-4-methyl-5-(1-morpholinophthalazin-6-yl)thiophene-2-carboxamide]	≥ 5.30

SMILES	pIC50
Cc1cc(C(=O)O)sc1-c1ccc2c(N3CCOCC3)nncc2c1 [Example 47, 4-methyl-5-(1-morpholinophthalazin-6-yl)thiophene-2-carboxylic acid]	≥ 5.30
CCSc1nncc2cc(-c3cc(C(=O)NC4CC4)ccc3C)ccc12 [Example 55, N-cyclopropyl-3-(1-(ethylthio)phthalazin-6-yl)-4-methylbenzamide]	≥ 5.30
Cc1ccc(C(=O)NC2CC2)cc1-c1ccc2c(N3CCC(=O)CC3)nncc2c1 [Example 58, N-cyclopropyl-4-methyl-3-[1-(4-oxopiperidin-1-yl)phthalazin-6-yl]benzamide]	≥ 5.30
Cc1ccc(C(N)=O)cc1-c1ccc2c(N3CC[S+]([O-])CC3)nncc2c1 [Example 60, 4-methyl-3-[1-(1-oxidothiomorpholin-4-yl)phthalazin-6-yl]benzamide]	≥ 5.30
Cc1ccc(C(=O)NC2CC2)cc1-c1ccc2c(N3CCC(O)(C(C)C)CC3)nncc2c1 [Example 61, N-cyclopropyl-3-(1-(4-hydroxy-4-isopropylpiperidin-1-yl)phthalazin-6-yl)-4-methylbenzamide]	≥ 5.30
Cc1ccc(C(=O)NC2CC2)cc1-c1ccc2c(C3=CCNCC3)nncc2c1 [Example 62, N-cyclopropyl-4-methyl-3-(1-(1,2,3,6-tetrahydropyridin-4-yl)phthalazin-6-yl)benzamide]	≥ 5.30
Cc1ccc(C(=O)NC2CC2)cc1-c1ccc2c(N3CCNC[C@@H]3C)nncc2c1 [Example 63, N-cyclopropyl-4-methyl-3-(1-((S)-2-methylpiperazin-1-yl)phthalazin-6-yl)benzamide]	≥ 5.30
Cc1ccc(C(=O)NC2CC2)cc1-c1ccc2c(C3CCNCC3)nncc2c1 [Example 64, N-cyclopropyl-4-methyl-3-(1-(piperidin-4-yl)phthalazin-6-yl)benzamide]	≥ 5.30
CNc1noc2c(-c3ccc4c(N5C[C@@H](C)OC[C@H]5C)nncc4c3)c(C)ccc12 [Example 65, 7-(1-((2R,5R)-2,5-dimethylmorpholino)phthalazin-6-yl)-N,6-dimethylbenzo [d]isoxazol-3-amine]	≥ 5.30
CC(=O)N1CCN(c2nncc3cc(-c4cc(C(=O)N(C(C)=O)C5CC5)ccc4C)ccc23)CC1 [Example 66, N-acetyl-3-(1-(4-acetylpiperazin-1-yl)phthalazin-6-yl)-N-cyclopropyl-4-methylbenzamide]	≥ 5.30
CC(=O)N1CCC(c2nncc3cc(-c4cc(C(=O)NC5CC5)ccc4C)ccc23)CC1 [Example 67, 3-(1-(1-acetylpiperidin-4-yl)phthalazin-6-yl)-N-cyclopropyl-4-methylbenzamide]	≥ 5.30
Cc1ccc(C(=O)NC2CC2)cc1-c1ccc2c(N3C(C)CC[C@@H]3C(=O)NC(C)C)nncc2c1 (stereo partly drawn) [Example 68, (2R)-1-(6-(5-(Cyclopropylcarbamoyl)-2-methylphenyl)phthalazin-1-yl)-N-isopropyl-5-methylpyrrolidine-2-carboxamide]	≥ 5.30
O=C(NC1CC1)c1cccc(-c2ccc3c(N4CCOCC4)nncc3c2)c1 [Example 69, N-Cyclopropyl-3-(1-morpholin-4-ylphthalazin-6-yl)benzamide]	≥ 5.30
Cc1ccc(C(=O)NC2CC2)cc1-c1ccc2c(C(=O)NC(C)C)nncc2c1 [Example 70, 6-{5-[(Cyclopropylamino)carbonyl]-2-methylphenyl}-N-isopropylphthalazine-1-carboxamide]	≥ 5.30
O=C(NC1CC1)c1ccc(F)c(-c2ccc3c(N4CCOCC4)nncc3c2)c1 [Example 72, N-Cyclopropyl-4-fluoro-3-(1-morpholin-4-ylphthalazin-6-yl)benzamide]	≥ 5.30
NC(=O)c1ccc(Cl)c(-c2ccc3c(N4CCOCC4)nncc3c2)c1 [Example 73, 4-Chloro-3-(1-morpholin-4-ylphthalazin-6-yl)benzamide]	≥ 5.30
Cc1ccc(C(=O)NC2CC2)cc1-c1ccc2c(N3CCOC[C@H]3C)nncc2c1 [Example 75, N-Cyclopropyl-4-methyl-3-{1-[(3R)-3-methylmorpholin-4-yl]phthalazin-6-yl}benzamide]	≥ 5.30
